Assay results reported in publication PMC4697445 (Journal of medicinal chemistry, 2015).
Where two headings read alike, the source gives them in different places.

Experiments:
PDE10A [1] = details: cited from earlier work
[2] = cited from earlier work
PDE10A [3] = target: PDE10A (Rattus norvegicus, UniProt Q9QYJ6); details: by 30 min p.i.
Biodistribution in rats = format: in vivo, male Sprague-Dawley rats; details: rat; for blood uptake / bone uptake / brain uptake / fat uptake / kidney uptake / liver uptake / muscle uptake: iv, mean ± SD, n = 4
PDE10A [4] = test system: PDE10A

Sequence of PDE10A (Rattus norvegicus, UniProt Q9QYJ6) (Q9QYJ6 whole entry): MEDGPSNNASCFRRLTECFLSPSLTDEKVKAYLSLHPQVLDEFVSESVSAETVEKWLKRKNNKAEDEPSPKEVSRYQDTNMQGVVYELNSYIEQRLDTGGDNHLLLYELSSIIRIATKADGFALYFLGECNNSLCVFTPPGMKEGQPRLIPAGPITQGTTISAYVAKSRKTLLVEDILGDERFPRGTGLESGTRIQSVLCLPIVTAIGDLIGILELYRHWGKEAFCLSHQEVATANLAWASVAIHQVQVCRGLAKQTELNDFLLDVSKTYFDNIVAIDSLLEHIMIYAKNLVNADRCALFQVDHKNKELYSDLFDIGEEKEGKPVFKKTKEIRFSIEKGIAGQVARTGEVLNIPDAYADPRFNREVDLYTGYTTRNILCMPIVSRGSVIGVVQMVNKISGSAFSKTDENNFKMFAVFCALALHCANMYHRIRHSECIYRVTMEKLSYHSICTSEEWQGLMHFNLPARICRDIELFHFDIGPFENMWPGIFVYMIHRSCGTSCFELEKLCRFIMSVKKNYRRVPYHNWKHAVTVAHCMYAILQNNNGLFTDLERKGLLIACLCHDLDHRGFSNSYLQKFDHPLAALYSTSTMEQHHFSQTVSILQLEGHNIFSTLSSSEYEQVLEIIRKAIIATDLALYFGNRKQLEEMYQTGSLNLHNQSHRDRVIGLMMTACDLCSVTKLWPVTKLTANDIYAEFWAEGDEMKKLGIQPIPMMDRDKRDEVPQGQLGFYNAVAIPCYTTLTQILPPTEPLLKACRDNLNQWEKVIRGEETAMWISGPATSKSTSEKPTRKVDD

SMILES: Cn1cc(-c2ccncc2)c(-c2ccc(OCc3ccc4ccccc4n3)cc2)n1 [[^11C]MP-10]
- brain uptake ([2]; 5 min p.i.): 0.162 ± 0.025 %ID/g
- brain uptake ([2]; 30 min p.i.): 0.066 ± 0.008 %ID/g

SMILES: Cn1cc(-c2ccncc2)c(-c2ccc(OCc3nc4ccccc4cc3OCC[18F])cc2)n1 [[^18F]20a, 3-((2-Fluoro-^18F)ethoxy)-2-((4-(1-methyl-4-(pyridin-4-yl)-1H-pyrazol-3-yl)phenoxy)methyl)-quinoline]
- ratio of activity in the striatum versus nontarget brain regions (PDE10A [3]): > 2 fold
- in vivo metabolic defluorination (bone activity) (Biodistribution in rats; 5 to 60 min p.i.): appeared more stable to in vivo defluorination
- blood uptake (Biodistribution in rats; 5 min p.i.): 0.343 ± 0.061 %ID/g
- bone uptake (Biodistribution in rats; 5 min p.i.): 0.182 ± 0.003 %ID/g
- brain uptake (Biodistribution in rats; 5 min p.i.): 0.092 ± 0.011 %ID/g
- fat uptake (Biodistribution in rats; 5 min p.i.): 0.119 ± 0.021 %ID/g
- kidney uptake (Biodistribution in rats; 5 min p.i.): 1.789 ± 0.332 %ID/g
- liver uptake (Biodistribution in rats; 5 min p.i.): 4.24 ± 0.74 %ID/g
- muscle uptake (Biodistribution in rats; 5 min p.i.): 0.166 ± 0.017 %ID/g
- blood uptake (Biodistribution in rats; 30 min p.i.): 0.306 ± 0.016 %ID/g
- bone uptake (Biodistribution in rats; 30 min p.i.): 0.144 ± 0.006 %ID/g
- brain uptake (Biodistribution in rats; 30 min p.i.): 0.129 ± 0.005 %ID/g
- fat uptake (Biodistribution in rats; 30 min p.i.): 0.202 ± 0.023 %ID/g
- kidney uptake (Biodistribution in rats; 30 min p.i.): 1.022 ± 0.103 %ID/g
- liver uptake (Biodistribution in rats; 30 min p.i.): 3.17 ± 0.55 %ID/g
- muscle uptake (Biodistribution in rats; 30 min p.i.): 0.156 ± 0.014 %ID/g
- blood uptake (Biodistribution in rats; 60 min p.i.): 0.287 ± 0.010 %ID/g
- bone uptake (Biodistribution in rats; 60 min p.i.): 0.224 ± 0.015 %ID/g
- brain uptake (Biodistribution in rats; 60 min p.i.): 0.149 ± 0.013 %ID/g
- fat uptake (Biodistribution in rats; 60 min p.i.): 0.124 ± 0.011 %ID/g
- kidney uptake (Biodistribution in rats; 60 min p.i.): 0.841 ± 0.087 %ID/g
- liver uptake (Biodistribution in rats; 60 min p.i.): 1.80 ± 0.62 %ID/g
- muscle uptake (Biodistribution in rats; 60 min p.i.): 0.134 ± 0.009 %ID/g
- % peak 1 (radiometabolite, retention time ~3.5 min) (NHP plasma, 2 min p.i.): 0%
- % peak 2 (radiometabolite, retention time ~7.5 min) (NHP plasma, 2 min p.i.): 0%
- % parent (NHP plasma, 15 min p.i.): > 90%
- % peak 1 (radiometabolite, retention time ~3.5 min) (NHP plasma, 15 min p.i.): 6%
- % peak 2 (radiometabolite, retention time ~7.5 min) (NHP plasma, 15 min p.i.): 2%
- % peak 1 (radiometabolite, retention time ~3.5 min) (NHP plasma, 30 min p.i.): 15%
- % peak 2 (radiometabolite, retention time ~7.5 min) (NHP plasma, 30 min p.i.): 8%
- % peak 1 (radiometabolite, retention time ~3.5 min) (NHP plasma, 60 min p.i.): 29%
- % peak 2 (radiometabolite, retention time ~7.5 min) (NHP plasma, 60 min p.i.): 14%
- % peak 1 (radiometabolite, retention time ~3.5 min) (NHP plasma, 90 min p.i.): 39%
- % peak 2 (radiometabolite, retention time ~7.5 min) (NHP plasma, 90 min p.i.): 14%
- radioactivity of arterial blood found in the plasma (plasma separated from packed red cells): 65–75%
- ratios of uptake in the striatum vs nontarget brain regions (PDE10A [4]; cynomolgus macaque microPET, by 40 min p.i.): > 3 fold
- target:nontarget ratios (PDE10A [4]; cynomolgus macaque microPET, by 70 min p.i.): > 5 fold
- visualization of striatum in microPET (PDE10A [4]; cynomolgus macaque, summed images 0 to 180 min): clear visualization of the PDE10A-enriched striatum
